Test results taken from ChEMBL document CHEMBL4007472, “Identification of novel TACE inhibitors compatible with topical application” (Bioorg Med Chem Lett, 2017).

Tests used:
[1] = biological target: T1, Disintegrin and metalloproteinase domain-containing protein 17 (Homo sapiens, UniProt P78536); assay: Inhibition of recombinant human TACE catalytic domain using Mca-Pro-Leu-Ala-Gln-Ala-Val-Dpa-Arg-Ser-Ser-Ser-Arg-NH2 as substrate after 2 hrs by fluorescence assay
[2] = biological target: T1, Disintegrin and metalloproteinase domain-containing protein 17; assay: Inhibition of recombinant TACE catalytic domain (unknown origin) using Abz-LAQAVRSSSR-Dpa as substrate preincubated for 10 mins followed by substrate addition measured after 10 mins by FRET assay
[3] = biological target: Disintegrin and metalloproteinase domain-containing protein 17 (Mus musculus, UniProt Q9Z0F8); assay: Inhibition of TACE in mouse RAW264.7 cells assessed as inhibition of LPS-stimulated TNFalpha production pretreated for 1 hr followed by LPS stimulation for 4 hrs by ELISA; type: cell-based; conditions: read-out: IC50
Sequence of Disintegrin and metalloproteinase domain-containing protein 17 (Mus musculus, UniProt Q9Z0F8) (Q9Z0F8 whole entry, the tested form may be a part): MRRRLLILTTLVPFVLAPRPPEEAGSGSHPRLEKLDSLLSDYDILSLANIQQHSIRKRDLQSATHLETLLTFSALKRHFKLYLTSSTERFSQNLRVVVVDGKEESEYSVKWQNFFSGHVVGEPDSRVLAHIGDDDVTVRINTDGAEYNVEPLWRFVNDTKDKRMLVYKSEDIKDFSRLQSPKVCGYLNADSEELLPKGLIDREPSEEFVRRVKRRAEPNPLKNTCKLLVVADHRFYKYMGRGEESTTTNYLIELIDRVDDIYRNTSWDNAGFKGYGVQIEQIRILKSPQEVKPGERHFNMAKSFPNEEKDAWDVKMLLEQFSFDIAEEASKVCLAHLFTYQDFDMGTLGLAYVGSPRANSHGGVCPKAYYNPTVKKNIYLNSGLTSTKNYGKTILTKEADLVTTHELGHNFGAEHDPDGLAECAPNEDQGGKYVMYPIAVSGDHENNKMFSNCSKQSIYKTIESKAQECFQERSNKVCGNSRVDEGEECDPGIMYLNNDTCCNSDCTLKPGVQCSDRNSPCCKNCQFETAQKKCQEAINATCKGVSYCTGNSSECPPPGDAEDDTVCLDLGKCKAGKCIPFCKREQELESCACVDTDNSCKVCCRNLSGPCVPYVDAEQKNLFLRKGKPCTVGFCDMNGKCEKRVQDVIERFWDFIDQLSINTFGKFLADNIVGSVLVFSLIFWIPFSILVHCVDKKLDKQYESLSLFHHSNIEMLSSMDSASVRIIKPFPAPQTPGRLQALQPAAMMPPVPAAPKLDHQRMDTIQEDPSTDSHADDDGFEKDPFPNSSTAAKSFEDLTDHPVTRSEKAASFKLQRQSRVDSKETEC

T1 sequence (P78536 whole entry, the tested form may be a part): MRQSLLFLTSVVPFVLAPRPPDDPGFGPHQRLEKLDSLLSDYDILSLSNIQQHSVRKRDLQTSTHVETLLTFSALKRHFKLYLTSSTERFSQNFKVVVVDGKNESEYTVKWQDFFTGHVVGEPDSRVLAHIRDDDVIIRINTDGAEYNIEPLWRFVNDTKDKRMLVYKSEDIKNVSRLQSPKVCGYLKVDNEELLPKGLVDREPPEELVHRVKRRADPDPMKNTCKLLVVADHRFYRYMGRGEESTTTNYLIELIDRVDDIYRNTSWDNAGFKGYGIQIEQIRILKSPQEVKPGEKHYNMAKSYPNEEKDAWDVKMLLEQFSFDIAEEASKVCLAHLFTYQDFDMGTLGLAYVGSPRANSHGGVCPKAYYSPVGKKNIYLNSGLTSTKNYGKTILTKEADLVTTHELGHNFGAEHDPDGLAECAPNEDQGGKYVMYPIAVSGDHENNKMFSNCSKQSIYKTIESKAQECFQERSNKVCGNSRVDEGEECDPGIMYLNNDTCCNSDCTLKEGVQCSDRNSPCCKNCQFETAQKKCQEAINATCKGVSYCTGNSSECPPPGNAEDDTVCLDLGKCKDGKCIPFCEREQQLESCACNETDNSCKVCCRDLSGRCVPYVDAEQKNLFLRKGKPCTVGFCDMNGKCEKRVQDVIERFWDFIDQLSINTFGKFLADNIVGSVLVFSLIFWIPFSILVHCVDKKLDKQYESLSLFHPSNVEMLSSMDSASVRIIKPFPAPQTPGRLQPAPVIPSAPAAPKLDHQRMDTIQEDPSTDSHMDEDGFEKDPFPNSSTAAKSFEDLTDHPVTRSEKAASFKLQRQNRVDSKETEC

| IC50 [1] | IC50 ([2]; read-out: IC50) | IC50 [3] | IC50 ([2]; read-out: pIC50 (converted)) | Structure (SMILES) |
| --- | --- | --- | --- | --- |
|  | 0.0047 µM | 0.09 µM |  | Cc1cc(COc2ccc(S(=O)(=O)N[C@@H]3CNC[C@@H]3C(=O)NO)cc2)c2ccccc2n1 (relative stereo) |
|  |  | 0.058 µM | 0.00126 µM | Cc1cc(COc2ccc(S(=O)(=O)N[C@@H]3CN(C(=O)NC(C)(C)C)CC[C@@H]3C(=O)NO)cc2)c2ccccc2n1 |
| > 10 µM |  |  |  | CC(=O)N1C[C@H](S(=O)(=O)c2ccc(OCc3cc(C)nc4c3CCCC4)cc2)C[C@@H]1C(=O)NO |
| 0.016 µM |  |  |  | CCC1(C(=O)NO)CCN(S(=O)(=O)c2ccc(OCc3cc(C)nc4ccccc34)cc2)C1 (stereo unspecified) |
|  |  | 1 µM |  | Cc1cc(COc2ccc(S(=O)(=O)N(C)[C@@H]3CC=CC[C@@H]3C(=O)NO)cc2)c2ccccc2n1 (relative stereo) |
|  | 0.0006 µM | 1 µM |  | Cc1cc(COc2ccc(S(=O)(=O)N[C@@H]3CCN(C=O)C[C@]3(C)C(=O)NO)cc2)c2ccccc2n1 |
|  |  | 1 µM | 0.1 µM | Cc1cc(COc2ccc(S(=O)(=O)N[C@@H]3CCNC[C@]3(O)C(=O)NO)cc2)c2ccccc2n1 |
| > 10 µM |  |  |  | CC#CCOc1ccc(S(=O)(=O)[C@@H]2C[C@H](C(=O)NO)N(C(C)=O)C2)cc1 |
| 0.03 µM |  |  |  | CC(=O)N1CCN(S(=O)(=O)c2ccc(OCc3cc(C)nc4c3CCCC4)cc2)CC1(C)C(=O)NO (stereo unspecified) |
| 0.11 µM |  |  |  | Cc1cc(COc2ccc(S(=O)(=O)N3CCNC(C(=O)NO)C3)cc2)c2c(n1)CCCC2 (stereo unspecified) |
|  |  | 0.09 µM |  | C#CCN1C[C@H](C(=O)NO)[C@H](NS(=O)(=O)c2ccc(OCc3cc(C)nc4ccccc34)cc2)C1 (relative stereo) |
|  |  | 1 µM | 0.01 µM | CC[C@]1(C(=O)NO)CCC[C@H]1N(C)S(=O)(=O)c1ccc(OCc2cc(C)nc3ccccc23)cc1 |
|  |  | 0.007 µM |  | Cc1cc(COc2ccc(S(=O)(=O)N[C@@H]3CCN(C=O)C[C@@H]3C(=O)NO)cc2)c2ccccc2n1 |
|  |  | 1 µM |  | Cc1cc(COc2ccc(S(=O)(=O)N(C)[C@@H]3CCOC[C@@H]3C(=O)NO)cc2)c2ccccc2n1 (relative stereo) |
|  |  | 1 µM | 0.2 µM | Cc1cc(COc2ccc(S(=O)(=O)N[C@@H]3CCN(C(C)C)C[C@]3(C)C(=O)NO)cc2)c2ccccc2n1 |
| 0.035 µM |  |  |  | Cc1cc(COc2ccc(S(=O)(=O)N3CCC(CC(C)C)(C(=O)NO)C3)cc2)c2ccccc2n1 (stereo unspecified) |
| > 10 µM |  |  |  | CC(=O)N1C[C@@H](S(=O)(=O)c2ccc(OCc3cc(C)nc4c3CCCC4)cc2)C[C@@H]1C(=O)NO |
| 0.2 µM |  |  |  | CC(=O)N1CCCN(S(=O)(=O)c2ccc(OCc3cc(C)nc4ccccc34)cc2)CC1C(=O)NO (stereo unspecified) |
|  |  | 1.92 µM | 0.00631 µM | Cc1cc(COc2ccc(S(=O)(=O)N[C@@H]3CCOC[C@@]3(C)C(=O)NO)cc2)c2ccccc2n1 |

Continued, compound first:

| Structure (SMILES) | IC50 [1] | IC50 ([2]; read-out: IC50) | IC50 [3] | IC50 ([2]; read-out: pIC50 (converted)) |
| --- | --- | --- | --- | --- |
| CC#CCOc1ccc(S(=O)(=O)[C@H]2C[C@H](C(=O)NO)N(C(C)=O)C2)cc1 | > 10 µM |  |  |  |
| Cc1cc(COc2ccc(S(=O)(=O)N[C@@H]3CCC[C@]3(C)C(=O)NO)cc2)c2ccccc2n1 |  | 0.0006 µM | 0.27 µM |  |
| Cc1cc(COc2ccc(S(=O)(=O)N[C@@H]3CCN(C=O)C[C@]3(O)C(=O)NO)cc2)c2ccccc2n1 |  |  | 0.16 µM | 0.00126 µM |
| Cc1cc(COc2ccc(S(=O)(=O)N(C)[C@H]3CCCC[C@@H]3C(=O)NO)cc2)c2ccccc2n1 (relative stereo) |  | 0.0014 µM | 0.911 µM |  |
| Cc1cc(COc2ccc(S(=O)(=O)N[C@@H]3[C@H]4CC[C@H](C4)[C@@H]3C(=O)NO)cc2)c2ccccc2n1 |  | 0.0006 µM | 0.018 µM |  |
| Cc1cc(COc2ccc(S(=O)(=O)N(C)[C@@H]3CCC[C@]3(CO)C(=O)NO)cc2)c2ccccc2n1 |  | 0.0006 µM | 0.44 µM |  |
| Cc1cc(COc2ccc(S(=O)(=O)N[C@@H]3CCN(S(=O)(=O)C(C)C)C[C@]3(C)C(=O)NO)cc2)c2ccccc2n1 |  |  | 0.762 µM | 0.00251 µM |
| Cc1cc(COc2ccc(S(=O)(=O)N[C@@H]3CN(C(=O)OC(C)(C)C)CC[C@H]3C(=O)NO)cc2)c2ccccc2n1 |  | 0.0007 µM | 0.058 µM |  |
| Cc1cc(COc2ccc(S(=O)(=O)N[C@H]3CCCC[C@@H]3C(=O)NO)cc2)c2ccccc2n1 (relative stereo) |  | 0.0018 µM | 0.06 µM |  |
| Cc1cc(COc2ccc(S(=O)(=O)N3CCC(Cc4ccccc4)(C(=O)NO)C3)cc2)c2ccccc2n1 (stereo unspecified) | 0.042 µM |  |  |  |
| Cc1cc(COc2ccc(S(=O)(=O)N[C@@H]3CCC[C@]3(O)C(=O)NO)cc2)c2ccccc2n1 |  |  | 0.082 µM |  |
| Cc1cc(COc2ccc(S(=O)(=O)N[C@@H]3CCCC[C@@H]3C(=O)NO)cc2)c2ccccc2n1 (relative stereo) |  | 0.001 µM | 0.08 µM |  |
| Cc1cc(COc2ccc(S(=O)(=O)N3CCCOC(C(=O)NO)C3)cc2)c2ccccc2n1 (stereo unspecified) | 0.071 µM |  |  |  |
| Cc1cc(COc2ccc(S(=O)(=O)N[C@@H]3CN(C(=O)OC(C)(C)C)C[C@@H]3C(=O)NO)cc2)c2ccccc2n1 (relative stereo) |  | 0.0006 µM | 0.038 µM |  |
| Cc1cc(COc2ccc(S(=O)(=O)N[C@@H]3CN(C=O)CCC3C(=O)NO)cc2)c2ccccc2n1 (stereo partly specified) |  |  | 0.021 µM |  |
